Laboratory results from PubChem BioAssay (NCI).
Where “and” joins values, the source holds several entries; their conditions need not be identical. Equal values may be shown once.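 Following 48 hours of exposure in 96-well plates, responses at five concentrations were used to interpolate endpoints linearly. GI50 marks 50% less growth. The concentration for full growth arrest is given as TGI.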

Key:
Assay in all cases: NCI tumour cell line growth inhibition, 48 h
KM20L2 colon = system: KM20L2 colon
LXFL 529 NSCLC = system: LXFL 529 NSCLC
RXF-631 renal = system: RXF-631 renal
XF 498 CNS = system: XF 498 CNS
HS 578T breast = system: HS 578T breast
MCF7 breast = system: MCF7 breast
MDA-MB-435 = system: MDA-MB-435
MDA-N = system: MDA-N
NCI/ADR-RES ovarian = system: NCI/ADR-RES ovarian
P388 leukemia = system: P388 leukemia
P388/ADR leukemia = system: P388/ADR leukemia
SN12K1 renal = system: SN12K1 renal

| Structure (SMILES) | TGI (KM20L2 colon) | TGI (LXFL 529 NSCLC) | TGI (RXF-631 renal) [µM] | TGI (XF 498 CNS) | other results |
| --- | --- | --- | --- | --- | --- |
| NC(N)=NS(=O)(=O)c1ccc(NC(=O)c2ccc(Cl)c3c(Nc4ccc(S(=O)(=O)N=C(N)N)cc4)c4ccccc4nc23)cc1 | > 100 µM | > 100 µM | > 100 |  |  |
| Cc1cc(Cl)ccc1N1C(=O)C(=O)C(c2nc3ccccc3s2)/C(=N\NC(=O)c2ccccc2O)C1=O (stereo unspecified) | > 100 µM | > 100 µM | > 100 |  |  |
| CC(C)c1cccc2sc(NC(=O)C(=O)CC(=O)c3ccc(F)cc3)nc12 | > 100 µM | > 100 µM | > 100 | > 100 µM |  |
| COc1cc(C(C)c2cc3c(cc2OCCOCCOc2cc4c(cc2C(C)c2cc(OC)c(OC)c(OC)c2)OCO4)OCO3)cc(OC)c1OC (stereo unspecified) | > 100 µM | > 100 µM | > 100 | > 10 µM | GI50 (KM20L2 colon): > 100 µM; GI50 (LXFL 529 NSCLC): > 100 µM; GI50 (RXF-631 renal): > 100 µM |
| NCC(=O)OCN1C(=O)C2C3C=CC(C2C1=O)C1C2C(=O)N(COC(=O)CN)C(=O)C2C31 (stereo unspecified) | 52.9 µM and 81.9 µM | 42.1 µM and > 100 µM |  | 54.7 µM and 64.1 µM |  |
| CCOc1ccccc1N=C(NC(=O)CC)SC | > 100 µM | > 100 µM | > 100 |  | GI50 (KM20L2 colon): > 100 µM; GI50 (LXFL 529 NSCLC): > 100 µM; GI50 (RXF-631 renal): > 100 µM |
| CC(=O)N1C(=O)C(=O)c2cc(Cl)ccc21 |  | > 100 µM | > 100 | 65.2 µM |  |
| O=C1c2ccccc2C(=O)N1C/C=N/NS(=O)(=O)c1ccc(Cl)cc1 | > 100 µM | > 100 µM | > 100 | > 100 µM |  |
| CCN(CC)CCNc1ccc(CO)c2sc3ccccc3c(=O)c12 | 18.4 µM and 22.6 µM | 31.6 µM |  | 24.5 µM | GI50 (HS 578T breast): 4.26 µM and 9.64 µM; TGI (HS 578T breast): 24.8 µM and 26.8 µM; GI50 (MCF7 breast): 2.21 µM and 4.35 µM and 5.57 µM; TGI (MCF7 breast): 7.55 µM and 17.3 µM and 19.2 µM; GI50 (MDA-MB-435): 2.49 µM; TGI (MDA-MB-435): 7.56 µM and 11.3 µM; TGI (MDA-N): 16.6 µM; GI50 (NCI/ADR-RES ovarian): 2.99 µM and 4.29 µM and 7.25 µM; TGI (NCI/ADR-RES ovarian): 17 µM and 17.3 µM and 21 µM; TGI (P388 leukemia): 8.68 µM; TGI (P388/ADR leukemia): 31.3 µM; TGI (SN12K1 renal): 17.4 µM |
| CCC1N2CCCCC2[C@@H]2c3[nH]c4ccccc4c3CCN12 (stereo partly specified) | > 100 µM | > 100 µM | > 100 | > 100 µM |  |
| CC(=O)C1C(=O)C(=O)N(c2ccc(Cl)cc2C)C1=O (stereo unspecified) | > 100 µM | > 100 µM | > 100 |  |  |
| CC(C)[C@H](COC(C)(C)C)N=CN1CSc2ccccc21 | > 100 µM | > 100 µM | > 100 | 47.8 µM |  |
| CCCCCCCCCCSS(=O)(=O)c1ccc(C)cc1 | 33.3 µM | 27.6 µM | 17.2 | 26 µM |  |
| O=C(O/N=C1/CCC/C1=C\c1ccccc1)c1ccc(Cl)cc1 | > 100 µM | > 100 µM |  | > 100 µM |  |
| CN1NC(c2ccccc2)=C(C#N)C(=O)CC1c1ccccc1Cl (stereo unspecified) |  | > 100 µM | > 100 | > 100 µM |  |
| C#Cc1cccc(N2C(=O)CC(=P(c3ccccc3)(c3ccccc3)c3ccccc3)C2=O)c1 |  | > 100 µM |  | 38.8 µM |  |
| CCCC(=O)C(CC)/C(CCC(=O)N(Cc1ccccc1)Cc1ccccc1)=N/NC(=O)C[N+](C)(C)C (stereo unspecified) | > 100 µM | > 100 µM |  | > 100 µM |  |
| COc1ccc2c(CCNS(=O)(=O)c3ccccc3)c(C(C)=O)[nH]c2c1[N+](=O)[O-] | > 100 µM | > 100 µM | > 100 |  |  |
| COC(=O)/C1=C/C2CC(/C=C(/c3ccccc3)C(=O)O1)C2 |  |  |  | 45.2 µM |  |
| CC[O+]=c1cccc2ssnc1-2 | > 100 µM | > 100 µM | > 100 | 66.9 µM |  |
| C=CC1(C)/C(=N\O)C(C)(CC)C(=O)N1O (stereo unspecified) |  | > 100 µM | > 100 | > 100 µM |  |
| CN1C(=O)NC2(O)c3ccccc3C(=O)C12O (stereo unspecified) | > 100 µM | > 100 µM |  | > 100 µM |  |
| O=C(O)c1cc2c3c(c1)[C@H]1C=CC[C@H]1CN3CC1CC=CC21 (stereo partly specified) | > 100 µM | > 100 µM |  | > 100 µM |  |
| CC(=O)[CH-]C(=O)c1ccccc1.CC(=O)[CH-]C(=O)c1ccccc1.[O-]c1ccc(O)cc1.[O-]c1ccc(O)cc1.[Ti+4] | 66.9 µM | 25.7 µM |  |  | GI50 (KM20L2 colon): 24.5 µM; GI50 (LXFL 529 NSCLC): 13 µM |
| COC(=O)c1c(C(=O)OC)c(C(=O)OC)c(C(=O)OC)c1C(=O)OC | > 100 µM | > 100 µM | > 100 |  |  |
| c1ccc2c(c1)[Se]c1ccccc1[Se]2 | > 100 µM | > 100 µM |  | > 100 µM |  |
| Cc1ccc(S(=O)(=O)NC(C)C(=O)O)cc1 (stereo unspecified) | > 100 µM | > 100 µM | > 100 | > 100 µM |  |
| [O-]c1c(-c2ccccc2)[se]c(-c2ccccc2)[n+]1-c1ccccc1 |  | 27.8 µM | 29.9 |  |  |
| COC(=O)/C=C\C1C(C(=O)OC)C2(C(=O)OC)CCC1(C(=O)OC)N2 (stereo unspecified) | > 61.8 µM | 19.3 µM | 48.7 | 34.3 µM |  |
